15 compounds from patent EP4763839A1 (Pamplona Therapeutics (Shenzhen) Co., Ltd., priority 2023, dated 2025) can be followed below.

Data set [1] relates to IL-6. As to the kind of experiment: Inhibition of R848-induced IL-6 release in human PBMCs, IL-6 ELISA. The class given is cell-based. The conditions noted are these: PBMC, compound 24 hours, then R848 10 µg/mL 5 hours. Here is the method:
Example 3: Detection of inhibition of R848-induced IL-6 release
Cryopreserved human PBMCs (Milestone® Biotechnologies, PB010C-W) were thawed and resuspended in RPMI-1640 medium (Gibco, 22400-105) supplemented with 10% fetal bovine serum (Gibco, 10099-141), 100 U/mL penicillin, and 100 µg/mL streptomycin (Gibco, 15140122). Subsequently, 190 µL of the PBMC suspension was added to each well of 96-well clear cell culture plates (Corning, 3599) to achieve a density of 1×10^5 cells/well. The cell plates were incubated at 37°C in a 5% CO2 incubator for 30 minutes. Then, 5 µL of diluted compound solution was added to the corresponding cell-seeded wells to achieve final concentrations ranging from 0.046 to 3,000 nM. The final concentration of DMSO was 0.1%. After the compound-treated cell plate was incubated at 37°C in a 5% CO2 incubator for 24 hours, 5 µL of R848 (MCE, HY-13740) was added to achieve a final concentration of 10 µg/mL. The cell plates were incubated again at 37°C in a 5% CO2 incubator for 5 hours, then centrifuged at 1,000 rpm for 1 minute. 100 µL of the cell supernatant from each well was transferred to a new 96-well clear cell culture plate for IL-6 concentration testing.
Interleukin-6 (IL-6) ELISA assay
The IL-6 concentration in the supernatant of R848-induced human PBMCs was determined using a Human IL-6 (interleukin-6) ELISA KIT (4Bio, CHE0009-048). IL-6 standard solutions at different concentrations, ranging from 3.9 to 250 pg/mL, were prepared according to the manufacturer's instructions. 100 µL of each concentration of the IL-6 standard solution and the pre-diluted test cell supernatant samples were added separately to anti-IL-6 antibody-coated and blocked clear 96-well plates, followed by incubation at 37°C for 1.5 hours. According to the product instructions, the plates were washed, 100 µL of biotinylated antibody was added, and the plates were incubated at 37°C for 1 hour. The plates were washed, 100 µL of enzyme conjugate working solution was added. The plates were incubated at 37°C for 30 minutes, and then washed. 100 µL of chromogenic substrate was added, and the plates were incubated at 37°C for 10-20 minutes. The reaction was terminated by adding 100 µL of stop solution. After the reaction, the OD value at 450 nm was measured in absorbance mode using an Envision microplate reader (PerkinElmer). A standard curve was plotted using the corrected OD values of the various concentrations of IL-6 standard solutions. The IL-6 concentration in each cell supernatant was then determined on the basis of the corresponding concentration for the corrected OD value of the test sample on the standard curve. […] Subsequently, the IC50 value of the compound was calculated by performing non-linear curve fitting of concentration versus inhibition rate using GraphPad Prism 9.

In data set [2] the target is T1, IRAK4 (Homo sapiens, UniProt Q9NWZ3).
T1 sequence (Q9NWZ3 1-460): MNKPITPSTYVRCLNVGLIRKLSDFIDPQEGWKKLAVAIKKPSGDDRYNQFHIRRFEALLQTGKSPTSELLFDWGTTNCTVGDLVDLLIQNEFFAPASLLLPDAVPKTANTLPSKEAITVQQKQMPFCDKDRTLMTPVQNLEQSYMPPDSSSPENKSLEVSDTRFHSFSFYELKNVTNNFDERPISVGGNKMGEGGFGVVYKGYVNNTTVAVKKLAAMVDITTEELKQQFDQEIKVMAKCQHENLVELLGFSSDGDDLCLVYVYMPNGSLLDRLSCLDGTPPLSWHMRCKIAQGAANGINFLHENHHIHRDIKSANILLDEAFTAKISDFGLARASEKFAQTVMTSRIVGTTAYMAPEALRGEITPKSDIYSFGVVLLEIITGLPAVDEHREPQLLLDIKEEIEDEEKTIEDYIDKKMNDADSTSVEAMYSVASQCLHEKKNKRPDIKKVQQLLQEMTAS
As to the kind of experiment: Degradation of IRAK4 in THP1 cells, Western blot. It counts as cell-based. Further details: Degradation of IRAK4 in THP1 by compound; host or cells: THP-1. The conditions noted are these: THP-1 cells, 24 hours of incubation; for DC50: IRAK4 protein by Western blot, read-out: DC50; for Dmax: maximum degradation rate, read-out: Dmax. A digest of the protocol: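 Degradation rate derived from densitometry of IRAK4 bands versus DMSO-treated controls. Read-out: anti-IRAK4 immunoblot (10% gel, 40 μg total protein per lane, BCA-normalised) of lysates from THP1 cells incubated with compound for 24 h.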
On the technique in general: Immunoblotting shows a protein as a band on a membrane.

Data set [3] is described as follows: Pharmacokinetic detection in rats after intravenous injection and oral administration. The class given is in vivo, Sprague-Dawley (SD) rats. As to conditions: rat; for AUC / Cmax / half-life: in vivo, oral administration, 10 mg/kg; for F: oral 10 mg/kg, intravenous 2 mg/kg. The procedure: Example 4. Pharmacokinetic detection
This study was designed to investigate the pharmacokinetic properties of the compounds in rats following intravenous injection and oral administration.
Experimental protocol: Six healthy male Sprague-Dawley (SD) rats were used for each compound, randomly divided into two groups of three animals each, with body weights ranging from 180-220 g. The rats were fasted overnight (10-14 hours) prior to administration, with free access to water, and food was restored 4 hours after administration. The compounds were formulated in a vehicle consisting of 5% DMSO + 10% solutol + 85% physiological saline (w/v). […] For A170, A177, and A180, the intravenous injection group received a dose of 1 mg/kg with an administration volume of 1 mL/kg, and the oral administration group received a dose of 5 mg/kg with an administration volume of 5 mL/kg. Blank blood samples were collected prior to administration. After administration, 0.2 mL of blood was collected from the jugular vein or other suitable methods at predetermined time points (0.083 h, 0.25 h, 0.5 h, 1 h, 2 h, 4 h, 8 h, 24 h) into EDTA-K2 anticoagulant tubes, and plasma was separated by centrifugation at 6800 g for 6 minutes. After the experiment, the concentration of the compound in plasma was quantitatively detected using liquid chromatography-tandem mass spectrometry (LCMS/MS). Pharmacokinetic parameters were calculated on the basis of the plasma concentration data at different time points using Phoenix WinNonlin version 8.3.5.

The structures appear in SMILES notation. Where only a bound is given, the exact number is not on record here.

For orientation: IC50 means the concentration at which inhibition is half-maximal. A word on the DC50: it is the midpoint of the concentration-degradation curve. The term Dmax denotes the largest share of the target that was removed. In general, AUC refers to concentration integrated over time. A lower AUC goes with low exposure. For orientation: Cmax means the peak of the concentration-time curve. By half-life is commonly meant the time in which the quantity being followed falls by half. High values mean slow decline, low ones rapid decline.

In data set [1], `COc1ccc(C(=O)N2CCC(CCN3CCN(c4ccc(-n5cc(NC(=O)c6cccc(C(F)(F)F)n6)c(C(F)F)n5)cc4)CC3)CC2)cc1N1CCC(=O)NC1=O` [Compound A148] gave an IC50 of 10 to 30 nM. Besides, in data set [2], the DC50 is 100 to 1000 nM and the Dmax is more than 60%.
In the case of `NC(=O)c1nn(-c2ccc(N3CCN(CC4CCN(c5ccc6c(c5)CN(C5CCC(=O)NC5=O)C6=O)CC4)CC3)cc2)cc1NC(=O)c1cccc(C(F)(F)F)n1` (stereo not drawn) [Compound A169], the concentration for half-maximal inhibition (IC50) in data set [1] was less than 10 nM. Moreover, in data set [3], the AUC came out at 3520 ng·h/mL, the highest level (Cmax) was 408 ng/mL, the half-life is 300 min and the F stood at 16%. Moreover, in data set [2], the 50% degradation concentration (DC50) was less than 100 nM and the Dmax was more than 60%.
In data set [1], `NC(=O)c1nn(-c2ccc(N3CCN(CCN4CCN(c5ccc6c(c5)C(=O)N(C5CCC(=O)NC5=O)C6=O)CC4)CC3)cc2)cc1NC(=O)c1cccc(C(F)(F)F)n1` (stereo not drawn) [Compound A173] came in with an IC50 of less than 10 nM. In data set [3], this compound gave an AUC of 1130 ng·h/mL, a peak concentration (Cmax) of 107 ng/mL, a half-life of 1260 min and an F of 18%.
With `Cn1c(=O)n(C2CCC(=O)NC2=O)c2cccc(N3CCN(CCN4CCN(c5ccc(N6C=C(NC(=O)c7cccc(C(F)(F)F)n7)C(=C=O)N6)cc5)CC4)CC3)c21` (stereo not drawn) [Compound A180, N-(3-carbonyl-1-(4-(4-(2-(4-(1-(2,6-dioxopiperidin-3-yl)-3-methyl-2-oxo-2,3-dihydro-1H-benzo[d]imidazol-4-yl)piperazin-1-yl)ethyl)piperazin-1-yl)phenyl)-1H-pyrazol-4-yl)-6-(trifluoromethyl)picolinamide], in data set [1], the concentration for half-maximal inhibition (IC50) is less than 10 nM. Further, in data set [2], the DC50 was less than 100 nM and the maximal degradation (Dmax) was more than 60%.
`Cn1c(=O)n(C2CCC(=O)NC2=O)c2cccc(N3CCC(CCN4CCN(c5ccc(-n6cc(NC(=O)c7cccc(C(F)(F)F)n7)c(C(N)=O)n6)cc5)CC4)CC3)c21` (stereo not drawn) [Compound A182, N-(3-carbamoyl-1-(4-(4-(2-(1-(1-(2,6-dioxopiperidin-3-yl)-3-methyl-2-oxo-2,3-dihydro-1H-benzo[d]imidazol-4-yl)piperidin-4-yl)ethyl)piperazin-1-yl)phenyl)-1H-pyrazol-4-yl)-6-(trifluoromethyl)picolinamide] registered an IC50 in data set [1] of less than 10 nM. For the same compound, in data set [2], the DC50 was less than 100 nM and the Dmax was more than 60%.
With `COc1ccc(C(=O)N2CCC(CCN3CCN(c4ccc(N5C=C(NC(=O)c6cccc(C(F)(F)F)n6)C(=C=O)N5)cc4)CC3)C2)cc1N1CCC(=O)NC1=O` (stereo not drawn) [Compound A183, N-(3-carbonyl-1-(4-(4-(2-(1-(3-(2,4-dioxotetrahydropyrimidin-1(2H)-yl)-4-methoxybenzoyl)pyrrolidin-3-yl)ethyl)piperazin-1-yl)phenyl)-1H-pyrazol-4-yl)-6-(trifluoromethyl)picolinamide], the IC50 in data set [1] was less than 10 nM. For the same compound, in data set [2], the half-maximal degradation concentration (DC50) was less than 100 nM and the Dmax is more than 60%.
With `Cn1c(-c2ccc(N3CCC(CN4CCN(c5ccc(-n6cc(NC(=O)c7cccc(C(F)(F)F)n7)c(C(N)=O)n6)cc5)CC4)C3)cc2)nn(C2CCC(=O)NC2=O)c1=O` (stereo not drawn) [Compound A187], the IC50 in data set [1] was less than 10 nM. In data set [2], the DC50 was less than 100 nM and the Dmax is more than 60%.
In data set [1], `Cn1c(-c2ccc(N3CCC(CN4CCN(c5ccc(-n6cc(NC(=O)c7cccc(C(F)(F)F)n7)c(C(N)=O)n6)cc5)CC4)CC3)cc2)nn(C2CCC(=O)NC2=O)c1=O` (stereo not drawn) [Compound A189] registered a half-maximal inhibitory concentration (IC50) of 10 to 30 nM. Moreover, in data set [2], the DC50 is 100 to 1000 nM and the Dmax is more than 60%.
`NC(=O)c1nn(-c2ccc(N3CCN(CC4CCN(c5ccc(NC6CCC(=O)NC6=O)cc5F)CC4)CC3)cc2)cc1NC(=O)c1cccc(C(F)(F)F)n1` (stereo not drawn) [Compound A195]: the IC50 in data set [1] is less than 10 nM. In data set [3], this compound gave an area under the curve (AUC) of 19300 ng·h/mL, a Cmax of 1250 ng/mL, a half-life of 900 min and an F of 52%.
`NC(=O)c1nn(-c2ccc(N3CCN(CCC4CCN(c5cccc(NC6CCC(=O)NC6=O)c5)CC4)CC3)cc2)cc1NC(=O)c1cccc(C(F)(F)F)n1` (stereo not drawn) [Compound A196] showed an IC50 in data set [1] of less than 10 nM. Moreover, in data set [2], the half-maximal degradation concentration (DC50) is less than 100 nM and the Dmax was more than 60%.
In data set [1], `NC(=O)c1nn(-c2ccc(N3CCN(CC4CCN(c5cccc(NC6CCC(=O)NC6=O)c5)CC4)CC3)cc2)cc1NC(=O)c1cccc(C(F)(F)F)n1` (stereo not drawn) [Compound A197] had a 50% inhibitory concentration (IC50) of 10 to 30 nM. For the same compound, in data set [2], the DC50 was less than 100 nM and the Dmax was more than 60%.
In data set [1], `NC(=O)c1nn(-c2ccc(CN3CCC4(CC3)CN(c3ccc5c(c3)C(=O)N(C3CCC(=O)NC3=O)C5=O)C4)cc2)cc1NC(=O)c1cccc(C(F)(F)F)n1` (stereo not drawn) [Compound A224, N-(3-carbamoyl-1-(4-((2-(2-(2,6-dioxopiperidin-3-yl)-1,3-dioxoisoindolin-5-yl)-2,7-diazaspiro[3.5]nonan-7-yl)methyl)phenyl)-1H-pyrazol-4-yl)-6-(trifluoromethyl)picolinamide] returned a concentration for half-maximal inhibition (IC50) of 10 to 30 nM. Further, in data set [2], the DC50 lay in the range of 100 to 1000 nM and the Dmax is more than 60%.
`NC(=O)c1nn(-c2ccc(N3CCN(CC4CCN(c5ccc6c(c5)C(=O)N(C5CCC(=O)NC5=O)C6=O)C4)CC3)cc2)cc1NC(=O)c1cccc(C(F)(F)F)n1` (stereo not drawn) [Compound A227] gave an IC50 in data set [1] of less than 10 nM. Moreover, in data set [2], the 50% degradation concentration (DC50) was less than 100 nM and the Dmax is more than 60%.
Consider `NC(=O)c1nn(-c2ccc(N3CCC(NCC4CCN(c5ccc6c(c5)C(=O)N(C5CCC(=O)NC5=O)C6=O)C4)CC3)cc2)cc1NC(=O)c1cccc(C(F)(F)F)n1` (stereo not drawn) [Compound A228], for which, in data set [1], the half-maximal inhibitory concentration (IC50) is less than 10 nM. Also, in data set [2], the DC50 is less than 100 nM and the maximal degradation (Dmax) was more than 60%.
In the case of `Cn1c(=O)n(C2CCC(=O)NC2=O)c2cccc(C#CCOC3CCN(CC4CCC(n5cc(NC(=O)c6cnn7ccc(N8CC9CC8CO9)nc67)c(C(F)F)n5)CC4)CC3)c21` (stereo not drawn) [Control compound 1, reference compound], in data set [3], the exposure (AUC) was found to be 428 ng·h/mL, the Cmax worked out at 98 ng/mL, the half-life was 240 min and the F came out at 8%.
